Measured values taken from US20070191336A1 (priority 2003, published 2007).

Molecular target: T1, phospho p-38 alpha kinase (Homo sapiens, UniProt Q16539)
T1 construct: purchased Panvera
Test: P-38 alpha kinase assay (spectrophotometric, pyruvate kinase/lactate dehydrogenase coupled)
Assay type: biochemical
Conditions: for IC50: Table 3, rates from […] to 2 h time frame

[1] = read-out: % Inhibition @ concentration, Table 3

T1 sequence (Q16539 whole entry): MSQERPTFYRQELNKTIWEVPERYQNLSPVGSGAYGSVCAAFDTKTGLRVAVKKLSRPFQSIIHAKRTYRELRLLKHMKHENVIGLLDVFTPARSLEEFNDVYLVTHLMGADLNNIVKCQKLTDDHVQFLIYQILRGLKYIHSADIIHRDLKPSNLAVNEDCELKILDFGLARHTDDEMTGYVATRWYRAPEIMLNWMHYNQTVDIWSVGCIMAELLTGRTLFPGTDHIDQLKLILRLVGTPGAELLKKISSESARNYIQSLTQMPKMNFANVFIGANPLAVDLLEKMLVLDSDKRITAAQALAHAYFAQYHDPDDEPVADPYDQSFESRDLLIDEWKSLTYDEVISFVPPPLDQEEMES

SMILES | IC50 [µM] | also measured
CC(C)(C)c1cc(NC(=O)Nc2ccc(Cl)cc2)n(-c2cccc(CNC(=O)N3CCOCC3)c2)n1 [Example 489, 1-(3-t-butyl-1-{3-[(morpholine-4-carboxamido)methyl]phenyl}-1H-pyrazol-5-yl)-3-(4-chlorophenyl)urea] | 0.52 | –
CC(C)(C)c1cc(NC(=O)Nc2ccc(Cl)cc2)n(-c2cccc(CNC(=O)N3CCCC3)c2)n1 [Example 490, 1-(3-t-butyl-1-{3-[(pyrrolidine-1-carboxamido)methyl]phenyl}-1H-pyrazol-5-yl)-3-(4-chlorophenyl)urea] | 0.34 | –
CN(C)C(=O)NCc1cccc(-n2nc(C(C)(C)C)cc2NC(=O)Nc2ccc(Cl)cc2)c1 [Example 491, 1-{3-t-butyl-1-[3-(3,3-dimethylureidomethyl)phenyl]-1H-pyrazol-5-yl}-3-(4-chlorophenyl)urea] | 0.34 | –
CN1CCN(C(=O)NCc2cccc(-n3nc(C(C)(C)C)cc3NC(=O)Nc3cccc4ccccc34)c2)CC1 [Example 492, 1-(3-t-butyl-1-{3-[(1-methylpiperazine-4-carboxamido)methyl]phenyl)-1H-pyrazol-5-yl)-3-(naphthalen-1-yl)urea] | 0.04 | –
CN1CCN(C(=O)NCc2cccc(-n3nc(C(C)(C)C)cc3NC(=O)Nc3ccc(Cl)cc3)c2)CC1 [Example 493, 1-(3-t-butyl-1-{3-[(1-methylpiperazine-4-carboxamido)methyl]phenyl}-1H-pyrazol-5-yl)-3-(4-chlorophenyl)urea] | – | inhibition at 1 µM [1]: 36%; inhibition at 10 µM (read-out: % Inhibition @ concentration, Table 3, at 10 uM): 73%
CC(C)(C)c1cc(NC(=O)Nc2ccc(Cl)cc2)n(-c2cccc(CN3C(=O)C(=O)N(c4ccccc4)C3=O)c2)n1 [Example 494, 1-(3-t-butyl-1-(3-[(2,4,5-trioxo-3-phenylimidazolidin-1-yl)methyl]phenyl}-1H-pyrazol-5-yl)-3-(4-chlorophenyl)urea] | 0.67 | –
CC(C)(C)c1cc(NC(=O)Nc2ccc(Cl)cc2)n(-c2cccc(Cn3c(=O)[nH]n(-c4ccccc4)c3=O)c2)n1 [Example 495, 1-(3-t-butyl-1-{3-[(3,5-dioxo-1-phenyl-1,2,4-triazolidin-4-yl)methyl]phenyl}-1H-pyrazol-5-yl)-3-(4-chlorophenyl)urea] | 0.25 | –
CC(C)(C)c1cc(NC(=O)Nc2ccc(F)cc2)n(-c2cccc(Cn3c(=O)[nH]n(-c4ccccc4)c3=O)c2)n1 [Example 498, 1-(3-t-butyl-1-{3-[(3,5-dioxo-1-phenyl-1,2,4-triazolidin-4-yl)methyl]phenyl}-1H-pyrazol-5-yl)-3-(4-fluorophenyl)urea] | – | inhibition at 1 µM [1]: 25%
CC(C)(C)c1cc(NC(=O)Nc2cccc(Cl)c2Cl)n(-c2cccc(Cn3c(=O)[nH]n(-c4ccccc4)c3=O)c2)n1 [Example 499, 1-(3-t-butyl-1-{3-[(3,5-dioxo-1-phenyl-1,2,4-triazolidin-4-yl)methyl]phenyl}-1H-pyrazol-5-yl)-3-(2,3-dichlorophenyl)urea] | – | inhibition at 0.1 µM (read-out: % Inhibition @ concentration, Table 3, at 0.1 uM): 78%; inhibition at 1 µM [1]: 95%
CC(C)(C)C1=NC(c2ccc(CC(=O)O)cc2)C(NC(=O)Nc2ccc(Cl)cc2)=C1 (stereo not drawn) [Example 506, 2-(4-{5-t-butyl-3-[3-(4-chlorophenyl)ureido]-2H-pyrrol-2-yl}-phenyl)acetic acid] | 0.042 | –
CC(C)(C)c1cc(NC(=O)Nc2cccc(Cl)c2Cl)n(-c2ccc3c(c2)CNCC3)n1 [Example 508, 1-[3-t-butyl-(1,2,3,4-tetrahydroisoquinolin-7-yl)-1H-pyrazol-5-yl]-3-(2,3-dichlorophenyl)urea] | 0.052 | –
CC(C)(C)c1cc(NC(=O)Nc2cccc3ccccc23)n(-c2ccc3c(c2)CNCC3)n1 [Example 509, 1-[3-t-butyl-1-(1,2,3,4-tetrahydroisoquinolin-7-yl)-1H-pyrazol-5-yl]-3-(naphthalen-1-yl)urea] | 0.5 | –
CC(C)(C)c1cc(NC(=O)Nc2ccc(Cl)cc2)n(-c2ccc3c(c2)CNCC3)n1 [Example 510, 1-[3-t-butyl-1-(1,2,3,4-tetrahydroisoquinolin-7-yl)-1H-pyrazol-5-yl]-3-(4-chlorophenyl)urea] | 0.47 | –
